The record followed here is patent publication US20030202967A1, “Development and use of human pancreatic cell lines” (priority 1995, published 2003).

The subject of test [1] is epithelial cells in the human fetal pancreas (HFP). The test can be described thus: Mitogenic effect on human fetal pancreas epithelial cells. It is filed as cell-based. As to the method:
Sci., 05:753-64 (1993)}. Thus, in this example, the epithelial cells were initially grown in the extracellular matrix from 804G cells and HGF/SF in DMEM, supplemented with 10% fetal bovine serum, at 37° C. and 10% CO2. In this growth condition, the epithelial cells formed an islet-like cell cluster (ICC)-derived monolayer cultures having a doubling time of 48 hours. With such high percentage of mitotically active cells, the use of retroviral vectors which require mitotically active cells for successful integration of viral DNA become attractive. After retroviral infection, the epithelial cells were grown in DMEM, supplemented with 10% fetal bovine serum, at 37° C. and 10% CO2, without the extracellular matrix from 804G cells and HGF/SF. The use of HGF/SF offers an added advantage of selecting for epithelial over stromal cells. Stromal cells produce the growth factor HGF. […] Thus, HGF/SF treatment results in selective growth of the epithelial cells but also increases the mitotic index of the epithelial cells. The following method used the HGF/SF method.

Test [2] has as its system CAT activity in LNSVoCL-infected 208F clones. It is filed as cell-based, rat. The following applies: some LNSVoCL-infected 208F clones also infected with pLISVHygL. As to the method: The ability of LNSVoCL and LoCRNLo to mediate inducible CAT expression was tested in rat 208F cells. The cells were infected by one of the two CAT-expressing vectors followed by the lac repressor-expressing vector pLISVHygL. Infected cells were selected in media containing G418 and hygromycin. CAT activity in LNSVoCL-infected 208F clones was determined in the presence or absence of IPTG.

The next test concerns TRM-1 cells. The test can be described thus: Insulin production from TRM-1 cells (radioimmunoassay). The format is cell-based, human. As to the method:
Levels of insulin and glucagon released into medium and the corresponding hormone content of acid ethanol extracts of sonicated cells were measured by radioimmunoassay (RIA) as described in Otonkoski, T., et al., J. Clin. Invest., 92:1459-1466 (1993).
Cells grown in this way were treated with nicotinamide for varying periods of time and assayed for insulin production using an extremely sensitive radioimmunoassay {Beattie, G., et al., J. Clin. Endocr. Metab., 78:1232-40 (1994)}.

For “HGF/SF: growth factor/scatter factor, ligand of the met receptor”, the Mitogenic effect entry in test [1] is “strongly mitogenic”.
For `CC(C)SC1O[C@H](CO)[C@H](O)[C@H](O)[C@H]1O` (stereo partly shown) [IPTG, isopropyl thiogalactopyranoside], the “Increase in CAT activity in the presence of IPTG over its absence” value in test [2] is given as 80-100 fold.
As to `NC(=O)c1cccnc1` [Nic., nicotinamide], the “Insulin production Day 0” value in the test with TRM-1 cells (TRM-1 suspension culture +10 mM Nic., Day 0) is 0 μU insulin/48 hr/ml medium. Besides, in the test on TRM-1 cells (TRM-1 suspension culture +10 mM Nic., Day 5), the “Insulin production Day 5” value was 0 μU insulin/48 hr/ml medium. Moreover, the “Insulin production Day 7” value in the test on TRM-1 cells (TRM-1 suspension culture +10 mM Nic., Day 7) is recorded as 0 μU insulin/48 hr/ml medium. The “Insulin production Day 11” value with TRM-1 cells (TRM-1 suspension culture +10 mM Nic., Day 11) is 2.8 μU insulin/48 hr/ml medium. Besides, the “Insulin production Day 13” value in the test with TRM-1 cells (TRM-1 suspension culture +10 mM Nic., Day 13) was 4.0 μU insulin/48 hr/ml medium. The “Insulin production Day 17” value in the test on TRM-1 cells (TRM-1 suspension culture +10 mM Nic., Day 17) is recorded as 5.6 μU insulin/48 hr/ml medium. Further, the “Insulin expression in suspension cultures” value with TRM-1 cells (TRM-1 suspension cultures, after 11 days of exposure) is reported as “small amounts of insulin”.
As for `Cn1c(=O)c2[nH]cnc2n(C)c1=O` [theophylline], the “Stimulation of insulin production by treatment” value in the test with TRM-1 cells (TRM-1 cells) is “not stimulated”.
